Results taken from ChEMBL document CHEMBL1136657, “Novel ether derivatives of mannopeptimycin glycopeptide antibiotic” (2003).
In brackets after ≈: the same amount, converted by molar mass.

What was measured:
Candida albicans [1] = assay: Minimum inhibitory concentration against Candida albicans was determined; assay type: functional
Escherichia coli [2] = assay: Minimum inhibitory concentration against Escherichia coli (GC 2203) was determined; assay type: functional
Enterococcus faecalis [3] = assay: Minimum inhibitory concentration against Enterococcus faecalis (GC 2242) was determined; assay type: functional
Enterococcus faecalis [4] = assay: Minimum inhibitory concentration against Enterococcus faecalis (GC 2691) was determined; assay type: functional
Enterococcus avium = assay: Minimum inhibitory concentration against Enterococcus avium (GC 4558) was determined; assay type: functional
Enterococcus faecalis [5] = assay: Minimum inhibitory concentration against Enterococcus faecalis (GC 4552) was determined; assay type: functional
Enterococcus faecalis [6] = assay: Minimum inhibitory concentration against Enterococcus faecalis (GC 4553) was determined; assay type: functional
Enterococcus faecalis [7] = assay: Minimum inhibitory concentration against Enterococcus faecalis (GC 4554) was determined; assay type: functional
Escherichia coli [8] = assay: Minimum inhibitory concentration against Escherichia coli (GC 4560) was determined; assay type: functional
Escherichia coli [9] = assay: Minimum inhibitory concentration against Escherichia coli (GC 4564) was determined; assay type: functional
Enterococcus faecium = assay: Minimum inhibitory concentration against Enterococcus faecium (GC 2243) was determined; assay type: functional
Enterococcus faecalis [10] = assay: Minimum inhibitory concentration against Enterococcus faecalis (GC 4555) was determined; assay type: functional
Enterococcus faecalis [11] = assay: Minimum inhibitory concentration against Enterococcus faecalis (GC 6189) was determined; assay type: functional
[12] = Minimum inhibitory concentration against Gram(-) sp. was determined; assay type: functional
Mus musculus = assay: In vivo activity against Staphylococcus aureus smith was determined after iv administration in mice; assay type: functional
Morganella morganii = assay: Minimum inhibitory concentration against Morganella morganii (GC 4381) was determined; assay type: functional
Pseudomonas aeruginosa = assay: Minimum inhibitory concentration against Pseudomonas aeruginosa (GC 2214) control was determined; assay type: functional
Micrococcus luteus = assay: Minimum inhibitory concentration against Sarcina lutea (GC 4562) was determined; assay type: functional
[13] = Minimum inhibitory concentration against SCN (GC 4548) was determined; assay type: functional
[14] = Minimum inhibitory concentration against SCN (GC 4549) was determined; assay type: functional
[15] = Minimum inhibitory concentration against SCN (GC 4551) was determined; assay type: functional
[16] = Minimum inhibitory concentration against SCN (GC 6257) was determined; assay type: functional
[17] = Minimum inhibitory concentration against SCN (GC 4547) was determined; assay type: functional
Streptococcus pyogenes = assay: Minimum inhibitory concentration against Streptococcus pyogenes (GC 4563) was determined; assay type: functional
Streptococcus agalactiae = assay: Minimum inhibitory concentration against Streptococcus agalactiae (GC4564) was determined; assay type: functional
Streptococcus pneumoniae [18] = assay: Minimum inhibitory concentration against Streptococcus pneumoniae (GC 1894) was determined; assay type: functional
Streptococcus pneumoniae [19] = assay: Minimum inhibitory concentration against Streptococcus pneumoniae (GC 4565) was determined; assay type: functional
Streptococcus pneumoniae [20] = assay: Minimum inhibitory concentration against Streptococcus pneumoniae (GC 6242) was determined; assay type: functional
Streptococcus = assay: Minimum inhibitory concentration against Streptococcus was determined; Range is <=0.12-0.5 ug/mL; assay type: functional
Enterococcus faecalis [21] = assay: Minimum inhibitory concentration against Enterococcus faecalis (GC 3059) was determined; assay type: functional
Candida albicans [22] = assay: Minimum inhibitory concentration against Candida albicans GC 3066 was determined; assay type: functional
Enterococcus faecalis [23] = assay: microbe, parasite or virus in culture
[24] = test system: Staphylococcus haemolyticus; assay: Minimum inhibitory concentration against Staphylococcus haemolyticus (GC 4546) was determined

## CN[C@H](CC(C)C)C(=O)N[C@H]1C(=O)N[C@@H](CC(N)=O)C(=O)N[C@H]2C(=O)N[C@H]3C(=O)N[C@H](C(=O)N[C@H](C(=O)O)c4cc(O)cc(O)c4-c4cc3ccc4O)[C@H](O)c3ccc(c(Cl)c3)Oc3cc2cc(c3O[C@@H]2O[C@H](CO)[C@@H](O)[C@H](O)[C@H]2O[C@H]2C[C@](C)(N)[C@H](O)[C@H](C)O2)Oc2ccc(cc2Cl)[C@H]1O [VANCOMYCIN]
Candida albicans [1]
  MIC: > 128 µg/mL
Escherichia coli [2]
  MIC: > 64 µg/mL
Enterococcus faecalis [3]
  MIC: > 64 µg/mL
Enterococcus faecalis [4]
  MIC: 1 µg/mL (≈ 0.69 µM)
Enterococcus avium
  MIC: > 64 µg/mL
Enterococcus faecalis [5]
  MIC: 1 µg/mL (≈ 0.69 µM)
Enterococcus faecalis [6]
  MIC: 0.5 µg/mL (≈ 0.345 µM)
Enterococcus faecalis [7]
  MIC: 0.5 µg/mL (≈ 0.345 µM)
Escherichia coli [8]
  MIC: 0.5 µg/mL (≈ 0.345 µM)
Escherichia coli [9]
  MIC: > 64 µg/mL
Enterococcus faecium
  MIC: > 64 µg/mL
Enterococcus faecalis [10]
  MIC: 2 µg/mL (≈ 1.38 µM)
Enterococcus faecalis [11]
  MIC: > 64 µg/mL
[12]
  MIC: > 128 µg/mL
Mus musculus
  ED50: 1 mg/kg
Mus musculus; Mus musculus, iv, read-out: ED50
  ED50: 0.5 mg/kg
Morganella morganii
  MIC: > 64 µg/mL
Pseudomonas aeruginosa
  MIC: > 64 µg/mL
Micrococcus luteus
  MIC: 1 µg/mL (≈ 0.69 µM)
[13]
  MIC: 2 µg/mL (≈ 1.38 µM)
[14]
  MIC: 0.5 µg/mL (≈ 0.345 µM)
[15]
  MIC: 2 µg/mL (≈ 1.38 µM)
[16]
  MIC: 0.5 µg/mL (≈ 0.345 µM)
[17]
  MIC: 2 µg/mL (≈ 1.38 µM)
Streptococcus pyogenes
  MIC: 0.25 µg/mL (≈ 0.173 µM)
Streptococcus agalactiae
  MIC: 0.5 µg/mL (≈ 0.345 µM)
Streptococcus pneumoniae [18]
  MIC: 0.12 µg/mL (≈ 0.0828 µM)
Streptococcus pneumoniae [19]
  MIC: 0.25 µg/mL (≈ 0.173 µM)
Streptococcus pneumoniae [20]
  MIC: 0.5 µg/mL (≈ 0.345 µM)
Streptococcus
  MIC: ≤ 0.12 µg/mL
Enterococcus faecalis [21]
  MIC: > 64 µg/mL
Candida albicans [22]
  MIC: > 64 µg/mL
Enterococcus faecalis [23]
  MIC: 0.5 µg/mL (≈ 0.345 µM)
[24]
  MIC: 1 µg/mL (≈ 0.69 µM)
